From patent US10428080B2, “TBK/IKK inhibitor compounds and uses thereof” (Merck Patent GmbH, priority 2015, dated 2019)
Where a name gives a salt, the structure may show the parent alone. Read-outs that look alike come from different tables or passages of the source.

Key:
TBK1 = target: T1, TBK1 (Homo sapiens, UniProt Q9UHD2); test: TBK Biochemical Assay; conditions: read-out: TBK1 IC50
T1 sequence (Q9UHD2 1-729): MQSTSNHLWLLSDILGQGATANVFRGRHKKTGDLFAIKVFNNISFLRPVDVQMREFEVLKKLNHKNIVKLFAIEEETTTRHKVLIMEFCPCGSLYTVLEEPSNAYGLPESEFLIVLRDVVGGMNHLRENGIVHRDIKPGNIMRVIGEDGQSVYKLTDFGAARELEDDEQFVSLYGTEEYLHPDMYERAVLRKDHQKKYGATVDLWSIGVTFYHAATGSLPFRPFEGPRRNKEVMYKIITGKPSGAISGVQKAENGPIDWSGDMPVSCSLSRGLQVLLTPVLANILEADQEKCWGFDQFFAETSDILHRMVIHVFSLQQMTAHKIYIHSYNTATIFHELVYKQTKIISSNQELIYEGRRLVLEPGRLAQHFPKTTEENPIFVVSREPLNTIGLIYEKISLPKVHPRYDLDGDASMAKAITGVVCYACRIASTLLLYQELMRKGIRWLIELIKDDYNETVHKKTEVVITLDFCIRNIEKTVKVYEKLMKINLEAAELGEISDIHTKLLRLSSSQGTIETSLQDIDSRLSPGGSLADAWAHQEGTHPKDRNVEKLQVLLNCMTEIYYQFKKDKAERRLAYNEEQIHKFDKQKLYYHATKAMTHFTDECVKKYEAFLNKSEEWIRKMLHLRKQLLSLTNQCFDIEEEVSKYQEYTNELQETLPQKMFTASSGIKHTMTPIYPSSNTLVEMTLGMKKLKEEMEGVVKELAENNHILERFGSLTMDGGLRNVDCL
Method in brief: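 Caliper LabChip mobility-shift readout of substrate and product after 90 min of TBK1 reaction at 25° C and stop-buffer addition. Compounds tested in 1:4 serial dilution over 10 points from 30 uM final at 1% DMSO; staurosporine 10 uM final defines full inhibition.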

IKKε = target: T2, IKKε (Homo sapiens, UniProt Q14164); test: IKKe Biochemical Assay; conditions: read-out: IKKε IC50
T2 sequence (Q14164 1-716): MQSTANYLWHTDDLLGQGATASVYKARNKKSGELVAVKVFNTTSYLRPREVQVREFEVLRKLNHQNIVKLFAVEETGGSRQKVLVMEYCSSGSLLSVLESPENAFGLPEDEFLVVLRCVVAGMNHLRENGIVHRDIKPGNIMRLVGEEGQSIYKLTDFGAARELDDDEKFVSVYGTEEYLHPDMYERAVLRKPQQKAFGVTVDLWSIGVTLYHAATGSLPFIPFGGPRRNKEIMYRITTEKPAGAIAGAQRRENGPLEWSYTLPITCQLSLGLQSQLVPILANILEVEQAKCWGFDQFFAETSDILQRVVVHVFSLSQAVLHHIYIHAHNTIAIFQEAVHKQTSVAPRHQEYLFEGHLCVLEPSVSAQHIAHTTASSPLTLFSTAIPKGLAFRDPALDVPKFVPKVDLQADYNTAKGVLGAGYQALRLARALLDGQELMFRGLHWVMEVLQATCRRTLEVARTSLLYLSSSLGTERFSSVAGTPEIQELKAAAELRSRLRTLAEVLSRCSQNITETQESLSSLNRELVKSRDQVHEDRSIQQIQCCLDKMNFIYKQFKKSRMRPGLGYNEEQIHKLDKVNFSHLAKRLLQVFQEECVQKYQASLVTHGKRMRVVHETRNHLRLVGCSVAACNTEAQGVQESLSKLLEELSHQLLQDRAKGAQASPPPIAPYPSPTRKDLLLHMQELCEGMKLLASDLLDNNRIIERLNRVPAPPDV
Method in brief: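 Activity was measured as mobility-shift separation of phosphorylated from unphosphorylated substrate on a LabChip EZ Reader. Compound was titrated from 30 uM final in 10 points, 1:4 steps, with 1% DMSO, and enzyme plus substrate reacted 90 min at 25° C before stop buffer. Control wells held 10 uM staurosporine.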

[1] = system: phosphorylation of the IRF-3 protein in MDA-MB-468 cells; test: pIRF3 immunocytochemistry cell based assay; conditions: MDA-MB-468 cells, Poly(I:C) stimulation, read-out: pIRF3 IC50
Method in brief: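 After 2 h stimulation with Poly(I:C) (10 ug/ml), following 1 h compound pre-treatment (10-point, 3-fold dilution, top 10 uM), MDA-MB-468 cells were fixed and stained with anti-pIRF3 antibody. pIRF3 fluorescence was normalized to PI staining or cell count on an Acumen cytometer. IC50 curves were derived from this.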

IC50 (TBK1) [nM]	IC50 (IKKε) [nM]	IC50 ([1]; Homo sapiens) [nM]	IC50 [1] [nM]	Compound
< 100	< 100	< 100	–	COc1cc(C(=O)NC2CN(C)C2)ccc1-c1cc2nccc(-c3ccc(OC4CCOCC4)c(C#N)c3)c2o1 [Compound 28, 4-{7-[3-Cyano-4-(tetrahydro-pyran-4-yloxy)-phenyl]-furo[3,2-b]pyridin-2-yl}-3-methoxy-N-(1-methyl-azetidin-3-yl)-benzamide]
< 100	< 100	100 to 1000	–	COc1cc(C(=O)N(C)C)ncc1-c1cc2nccc(-c3ccc(OC4CCOCC4)c(C#N)n3)c2o1 [Compound 387, 5-[7-[6-cyano-5-(oxan-4-yloxy)pyridin-2-yl]furo[3,2-b]pyridin-2-yl]-4-methoxy-N,N-dimethylpyridine-2-carboxamide hydrochloride]
< 100	< 100	100 to 1000	–	COc1cc(C(=O)NC2CN(C(C)C)C2)ccc1-c1cc2nccc(-c3ccc(OC4CCOCC4)c(C#N)c3)c2o1 [Compound 364, 4-(7-(3-cyano-4-(tetrahydro-2H-pyran-4-yloxy)phenyl)furo[3,2-b]pyridin-2-yl)-N-(1-isopropylazetidin-3-yl)-3-methoxybenzamide]
< 100	< 100	100 to 1000	–	COc1cc(C(=O)N(C)C(C)(C)C)ccc1-c1cc2nccc(-c3ccc(OC4CCOCC4)c(C#N)c3)c2o1 [Compound 481, N-tert-Butyl-4-{7-[3-cyano-4-(tetrahydro-pyran-4-yloxy)-phenyl]-furo[3,2-b]pyridin-2-yl}-3-methoxy-N-methyl-benzamide]
< 100	< 100	< 100	–	COc1cc(C(=O)N(C)CCN2CCCC2)ccc1-c1cc2nccc(-c3ccc(OC4CCOCC4)c(C#N)c3)c2o1 [Compound 473, 4-{7-[3-Cyano-4-(tetrahydro-pyran-4-yloxy)-phenyl]-furo[3,2-b]pyridin-2-yl}-3-methoxy-N-methyl-N-(2-pyrrolidin-1-yl-ethyl)-benzamide]
< 100	< 100	100 to 1000	–	COc1cc(C(=O)NC2(CO)CCCC2)ccc1-c1cc2nccc(-c3ccc(OC4CCOCC4)c(C#N)c3)c2o1 [Compound 475, 4-{7-[3-Cyano-4-(tetrahydro-pyran-4-yloxy)-phenyl]-furo[3,2-b]pyridin-2-yl}-N-(1-hydroxymethyl-cyclopentyl)-3-methoxy-benzamide]
< 100	< 100	< 100	–	COc1cc(C(=O)NC(C)(C)CN(C)C)ccc1-c1cc2nccc(-c3ccc(OC4CCOCC4)c(C#N)c3)c2o1 [Compound 63, 4-{7-[3-Cyano-4-(tetrahydro-pyran-4-yloxy)-phenyl]-furo[3,2-b]pyridin-2-yl}-N-(2-dimethylamino-1,1-dimethyl-ethyl)-3-methoxy-benzamide]
< 100	< 100	100 to 1000	–	COc1cc(C(=O)NC(C)(C)CCN(C)C)ccc1-c1cc2nccc(-c3ccc(OC4CCOCC4)c(C#N)c3)c2o1 [Compound 505, 4-{7-[3-Cyano-4-(tetrahydro-pyran-4-yloxy)-phenyl]-furo[3,2-b]pyridin-2-yl}-N-(3-dimethylamino-1,1-dimethyl-propyl)-3-methoxy-benzamide]
< 100	< 100	100 to 1000	–	COc1cc(C(=O)N(C)C)ccc1-c1cc2nccc(-c3ccc(N4CCC(F)C4)c(C#N)c3)c2o1 (stereo not drawn) [Compound 35]
< 100	< 100	–	100 to 1000	COc1cc(C(=O)N[C@H]2[C@@H]3C[C@H]2CN(C)C3)ccc1-c1cc2nccc(-c3ccc(OC4CCOCC4)c(C#N)c3)c2o1 (single isomer, unassigned) [Compound 366]

Further lines, the compound ahead of its results:

Compound	IC50 (TBK1) [nM]	IC50 (IKKε) [nM]	IC50 ([1]; Homo sapiens) [nM]	IC50 [1] [nM]
COc1cc(C(=O)N(C)C)cnc1-c1cc2nccc(-c3ccc(NC4CCN(C)C4)c(C#N)c3)c2o1 (stereo not drawn) [Compound 433, 6-(7-[3-cyano-4-[(1-methylpyrrolidin-3-yl)amino]phenyl]furo[3,2-b]pyridin-2-yl)-5-methoxy-N,N-dimethylpyridine-3-carboxamide]	< 100	< 100	< 100	–
CN(C)C(=O)c1ccc(-c2cc3nccc(-c4ccc(N5CC[C@@H](F)C5)c(C#N)c4)c3o2)cc1 [Compound 120, 4-{7-[3-Cyano-4-((R)-3-fluoro-pyrrolidin-1-yl)-phenyl]-furo[3,2-b]pyridin-2-yl}-N,N-dimethyl-benzamide]	< 100	< 100	100 to 1000	–
CN(C)C(=O)c1ccc(-c2cc3nccc(-c4ccc(O[C@@H]5CCCOC5)c(C#N)c4)c3o2)cc1 [Compound 156, 4-(7-{3-Cyano-4-[(R)-(tetrahydro-pyran-3-yl)oxy]-phenyl}-furo[3,2-b]pyridin-2-yl)-N,N-dimethyl-benzamide]	< 100	< 100	1000 to 5000	–
COc1cc(C(=O)N(C)C)cnc1-c1cc2nccc(-c3ccc(OC4CCNC4)c(C#N)c3)c2o1 (stereo not drawn) [Compound 487, 6-{7-[3-Cyano-4-(pyrrolidin-3-yloxy)-phenyl]-furo[3,2-b]pyridin-2-yl}-5-methoxy-N,N-dimethyl-nicotinamide]	100 to 1000	100 to 1000	100 to 1000	–
CN(C)C(=O)c1ccc(-c2cc3nccc(-c4ccc(N5CC[C@H](F)C5)c(C#N)c4)c3o2)cc1 [Compound 106, 4-{7-[3-Cyano-4-((S)-3-fluoro-pyrrolidin-1-yl)-phenyl]-furo[3,2-b]pyridin-2-yl}-N,N-dimethyl-benzamide]	< 100	< 100	100 to 1000	–
CN(C)C(=O)c1ccc(-c2cc3nccc(-c4ccc(NC5CCOC6(CC6)C5)c(C#N)c4)c3o2)cc1 (stereo not drawn) [Compound 286, 4-[7-[3-cyano-4-([4-oxaspiro[2.5]octan-7-yl]amino)phenyl]furo[3,2-b]pyridin-2-yl]-N,N-dimethylbenzamide]	100 to 1000	100 to 1000	1000 to 5000	–
CN(CCO)C(=O)c1ccc(-c2cc3ncc(F)c(-c4ccc(OC5CCOCC5)c(C#N)c4)c3o2)c(F)c1 [Compound 302, 4-[7-[3-cyano-4-(oxan-4-yloxy)phenyl]-6-fluorofuro[3,2-b]pyridin-2-yl]-3-fluoro-N-(2-hydroxyethyl)-N-methylbenzamide]	< 100	< 100	100 to 1000	–
COc1cc(C(=O)N(C)C)ncc1-c1cc2nccc(-c3ccc(NC4CCN(C)C4)c(C#N)c3)c2o1 (stereo not drawn) [Compound 434, 5-(7-[3-cyano-4-[(1-methylpyrrolidin-3-yl)amino]phenyl]furo[3,2-b]pyridin-2-yl)-4-methoxy-N,N-dimethylpyridine-2-carboxamide]	< 100	< 100	< 100	–
COc1cc(C(=O)N(C)C)ncc1-c1cc2nccc(-c3ccc(N4CCC(F)C4)c(C#N)c3)c2o1 (stereo in doubt) [Compound 390, 5-{7-[3-Cyano-4-((R)-3-fluoro-pyrrolidin-1-yl)-phenyl]-fluro[3,2-b]pyridin-2-yl}-4-methoxy-pyridine-2-carboxylic acid dimethylamide]	< 100	< 100	100 to 1000	–
